Where a SMILES comes first, the peptide text is derived from it. The star is where a group is joined. Succinyl(4-O-cholesteryl) = CC(C)CCC[C@@H](C)[C@H]1CC[C@H]2[C@@H]3CC=C4C[C@@H](OC(=O)CCC(=O)*)CC[C@]4(C)[C@H]3CC[C@]12C
Tests used:
RSV A long virus strain = format: cell-based; details: RSV A long virus strain, HEp-2 cells, plaque reduction, 1 day; read-out: IC50
Method in brief: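 HEp-2 cells (30000/well) infected with 100 PFU virus premixed 1 h with compound (8 concentrations, duplicate); after 2 h adsorption, cultured 1 day at 37 °C under 0.8% CMC overlay with compound. Plaques immunostained (RSV antibody, TrueBlue) and counted; IC50 and CC50 by non-linear fitting of % inhibition versus virus and cell controls.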

hMPV-N46 (127-172) = molecular target: T1, hMPV-N46 (127-172) (Human metapneumovirus, UniProt Q6WB98); experiment: SPR affinity to hMPV-N46 coupled on CM5 chip; format: binding
T1 construct: hMPV-N46 (127-172)
Procedure: hMPV and hPIV were two viruses having a typical Class I fusion protein-F protein. An F protein precursor F0 was cracked into F1 and F2 subunits. […] When the compound flowed through a chip surface, changes in an SPR signal were monitored in real time, binding and dissociation processes were recorded, and a binding rate constant (ka) and a dissociation rate constant (kd) were further obtained through kinetic analysis, thereby calculating an equilibrium dissociation constant (KD=kd/ka).
A CM5 chip with a catalog number 29149603, an amino coupling reagent kit with a catalog number BR100050, HBS-EP+Buffer (10×), sodium acetate (pH 4.0), and a 10 mM glycine-HCl buffer (pH 2.0) were all purchased from GE Health.
CM5 chip coupling: Channels 2 and 4 of the CM5 chip were activated for 7 min by using a freshly-prepared mixture of 50 mM Hydroxy succinimide (NHS) and 200 mM 1-(3-Dimethylaminopropyl)-3-ethylcarbodiimide (EDC) according to 1:1; and then, hMPV-N46 or hPIV-N51 was diluted and dissolved with sodium acetate with 4.0 pH to a concentration of 30 μM, with a flow rate of 10 μl/min and time of 600 s. An experimental buffer was HBS-EP+buffer (1×). Finally, the chip was blocked with 1 M ethanolamine. The instrument was set to a temperature of 25° C.
Affinity detection: the buffer used in the experiment was HBS-EP+buffer (1×), and a multi-cycle dynamic mode was used. Channels 1 and 3 of the chip served as blank reference channels; polypeptides to be detected sequentially flowed through Channels 2 and 4 at concentrations of 0 μM, 0.04 µM, 0.12 µM, 0.37 μM, 1.11 µM, 3.33 µM, 10 µM, and 30 μM; the flow rate was 30 μl/min, binding was performed for 180 s, and dissociation was performed for 120 s. Finally, the chip was regenerated by injecting 10 mM glycine (pH 2.0). The instrument was set to a temperature of 25° C.

T1 sequence (Q6WB98 127-172): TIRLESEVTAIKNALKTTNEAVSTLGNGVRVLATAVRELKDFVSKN

CC[C@H](C)[C@H](NC(=O)[C@H](CO)NC(=O)[C@H](C)NC(=O)[C@H](CC(=O)O)NC(=O)[C@H](Cc1ccccc1)NC(=O)[C@H](CCC(=O)O)NC(=O)[C@H](CC(=O)O)NC(C)=O)C(=O)N[C@@H](CO)C(=O)N[C@@H](CCC(N)=O)C(=O)N[C@H](C(=O)N[C@@H](CC(N)=O)C(=O)N[C@@H](CCC(=O)O)C(=O)N[C@@H](CCCCN)C(=O)N[C@H](C(=O)N[C@@H](CC(N)=O)C(=O)N[C@@H](CCC(N)=O)C(=O)N[C@@H](CO)C(=O)N[C@@H](CC(C)C)C(=O)N[C@@H](CCC(=O)O)C(=O)N[C@@H](CCC(=O)O)C(=O)N[C@H](C(=O)N[C@@H](CCCNC(=N)N)C(=O)N[C@@H](CCCCN)C(=O)N[C@@H](CO)C(=O)N[C@@H](CC(=O)O)C(=O)N[C@@H](CCC(=O)O)C(=O)N[C@@H](CC(C)C)C(=O)N[C@@H](CC(C)C)C(=O)N[C@@H](Cc1c[nH]cn1)C(=O)N[C@@H](CC(N)=O)C(=O)N[C@@H](CCC(=O)O)C(=O)N[C@@H](C)C(=O)N[C@@H](C)C(=O)N[C@@H](C)C(=O)N[C@@H](CCCCN)C(=O)N[C@@H](CCCCNC(=O)CCC(=O)O[C@H]1CC[C@@]2(C)C(=CC[C@H]3[C@@H]4CC[C@H]([C@H](C)CCCC(C)C)[C@@]4(C)CC[C@@H]32)C1)C(N)=O)[C@@H](C)CC)[C@@H](C)CC)C(C)C [Compound 28] (Ac-DEFDASISQVNEKINQSLEEIRKSDELLHNEAAAKK(Succinyl(4-O-cholesteryl))-NH2)
IC50 (RSV A long virus strain): 12.4 nM
Kd (hMPV-N46 (127-172)): 209 nM

CC[C@H](C)[C@H](NC(=O)[C@H](CCCCN)NC(=O)[C@H](CCC(=O)O)NC(=O)[C@H](CC(C)C)NC(=O)[C@H](CO)NC(=O)[C@H](CCC(N)=O)NC(=O)[C@H](CC(N)=O)NC(=O)[C@@H](NC(=O)[C@H](CCCCN)NC(=O)[C@H](CCC(=O)O)NC(=O)[C@H](CC(N)=O)NC(=O)[C@@H](NC(=O)[C@H](CCC(N)=O)NC(=O)[C@H](CO)NC(=O)[C@H](C)NC(=O)[C@H](CC(=O)O)NC(=O)[C@H](Cc1ccccc1)NC(=O)[C@@H](NC(=O)[C@H](CC(C)C)NC(=O)[C@H](CCC(=O)O)NC(=O)[C@H](CC(=O)O)NC(=O)[C@H](Cc1ccc(O)cc1)NC(C)=O)C(C)C)C(C)C)[C@@H](C)CC)C(=O)N[C@@H](CCCNC(=N)N)C(=O)N[C@@H](CCCCN)C(=O)N[C@@H](CO)C(=O)N[C@@H](CC(=O)O)C(=O)N[C@@H](CCC(=O)O)C(=O)N[C@@H](CC(C)C)C(=O)N[C@@H](CC(C)C)C(=O)N[C@@H](Cc1c[nH]cn1)C(=O)N[C@@H](CC(N)=O)C(=O)N[C@H](C(=O)N[C@@H](CCC(=O)O)C(=O)N[C@@H](C)C(=O)N[C@@H](C)C(=O)N[C@@H](C)C(=O)N[C@@H](CCCCN)C(=O)N[C@@H](CCCCNC(=O)CCC(=O)O[C@H]1CC[C@@]2(C)C(=CC[C@H]3[C@@H]4CC[C@H]([C@H](C)CCCC(C)C)[C@@]4(C)CC[C@@H]32)C1)C(N)=O)C(C)C [Compound 30] (Ac-YDELVFDASQVNEKINQSLEKIRKSDELLHNVEAAAKK(Succinyl(4-O-cholesteryl))-NH2)
IC50 (RSV A long virus strain): 14.9 nM
Kd (hMPV-N46 (127-172)): 187 nM

CC[C@H](C)[C@H](NC(=O)[C@H](CCCCN)NC(=O)[C@H](CCCCN)NC(=O)[C@H](CC(C)C)NC(=O)[C@H](CO)NC(=O)[C@H](CCC(=O)O)NC(=O)[C@H](CCC(=O)O)NC(=O)[C@@H](NC(=O)[C@H](CCCCN)NC(=O)[C@H](CCCCN)NC(=O)[C@H](CC(N)=O)NC(=O)[C@@H](NC(=O)[C@H](CCC(=O)O)NC(=O)[C@H](CCC(=O)O)NC(=O)[C@@H](NC(=O)[C@H](CCCCN)NC(=O)[C@H](CCCCN)NC(=O)[C@H](CC(=O)O)NC(=O)[C@H](Cc1ccccc1)NC(=O)[C@H](CCC(=O)O)NC(=O)[C@H](CC(=O)O)NC(=O)[C@H](Cc1c[nH]c2ccccc12)NC(C)=O)[C@@H](C)CC)C(C)C)[C@@H](C)CC)C(=O)N[C@@H](CCC(=O)O)C(=O)N[C@@H](CCC(=O)O)C(=O)N[C@@H](CO)C(=O)N[C@@H](CC(=O)O)C(=O)N[C@@H](CCCCN)C(=O)N[C@@H](CCCCN)C(=O)N[C@@H](CC(C)C)C(=O)N[C@@H](CCC(=O)O)C(=O)N[C@@H](CCC(=O)O)C(=O)N[C@H](C(=O)N[C@@H](CC(N)=O)C(=O)N[C@@H](C)C(=O)N[C@@H](CCC(=O)O)C(=O)N[C@@H](C)C(=O)N[C@@H](C)C(=O)N[C@@H](C)C(=O)N[C@@H](CCCCN)C(=O)N[C@@H](CCCCNC(=O)CCC(=O)O[C@H]1CC[C@@]2(C)C(=CC[C@H]3[C@@H]4CC[C@H]([C@H](C)CCCC(C)C)[C@@]4(C)CC[C@@H]32)C1)C(N)=O)C(C)C [Compound 40] (Ac-WDEFDKKIEEVNKKIEESLKKIEESDKKLEEVNAEAAAKK(Succinyl(4-O-cholesteryl))-NH2)
IC50 (RSV A long virus strain): 11.7 nM
Kd (hMPV-N46 (127-172)): 2470 nM

CC[C@H](C)[C@H](NC(=O)[C@H](CCCCN)NC(=O)[C@H](CCCCN)NC(=O)[C@H](CC(C)C)NC(=O)[C@H](CO)NC(=O)[C@H](CCC(=O)O)NC(=O)[C@H](CCC(=O)O)NC(=O)[C@@H](NC(=O)[C@H](CCCCN)NC(=O)[C@H](CCCCN)NC(=O)[C@H](CC(N)=O)NC(=O)[C@@H](NC(=O)[C@H](CCC(=O)O)NC(=O)[C@H](CCC(=O)O)NC(=O)[C@@H](NC(=O)[C@H](CCCCN)NC(=O)[C@H](CCCCN)NC(=O)[C@H](CC(=O)O)NC(=O)[C@H](Cc1ccccc1)NC(=O)[C@H](CCC(=O)O)NC(=O)[C@H](CC(=O)O)NC(=O)[C@H](Cc1c[nH]c2ccccc12)NC(C)=O)[C@@H](C)CC)C(C)C)[C@@H](C)CC)C(=O)N[C@@H](CCC(=O)O)C(=O)N[C@@H](CCC(=O)O)C(=O)N[C@@H](CO)C(=O)N[C@@H](CC(=O)O)C(=O)N[C@@H](CCCCN)C(=O)N[C@@H](CCCCN)C(=O)N[C@@H](CC(C)C)C(=O)N[C@@H](CCC(=O)O)C(=O)N[C@@H](CCC(=O)O)C(=O)N[C@H](C(=O)N[C@@H](CC(N)=O)C(=O)N[C@@H](CCC(=O)O)C(=O)N[C@@H](C)C(=O)N[C@@H](C)C(=O)N[C@@H](C)C(=O)N[C@@H](CCCCN)C(=O)N[C@@H](CCCCNC(=O)CCC(=O)O[C@H]1CC[C@@]2(C)C(=CC[C@H]3[C@@H]4CC[C@H]([C@H](C)CCCC(C)C)[C@@]4(C)CC[C@@H]32)C1)C(N)=O)C(C)C [Compound 41] (Ac-WDEFDKKIEEVNKKIEESLKKIEESDKKLEEVNEAAAKK(Succinyl(4-O-cholesteryl))-NH2)
IC50 (RSV A long virus strain): 14.8 nM
Kd (hMPV-N46 (127-172)): 4730 nM

CC[C@H](C)[C@H](NC(=O)[C@H](CO)NC(=O)[C@H](C)NC(=O)[C@H](CC(=O)O)NC(=O)[C@H](Cc1ccccc1)NC(C)=O)C(=O)N[C@@H](CCC(=O)O)C(=O)N[C@@H](CCC(=O)O)C(=O)N[C@H](C(=O)N[C@@H](CC(N)=O)C(=O)N[C@@H](CCCNC(=N)N)C(=O)N[C@@H](CCCNC(=N)N)C(=O)N[C@H](C(=O)N[C@@H](CCC(=O)O)C(=O)N[C@@H](CCC(=O)O)C(=O)N[C@@H](CO)C(=O)N[C@@H](CC(C)C)C(=O)N[C@@H](CCCNC(=N)N)C(=O)N[C@@H](CCCNC(=N)N)C(=O)N[C@H](C(=O)N[C@@H](CCC(=O)O)C(=O)N[C@@H](CCC(=O)O)C(=O)N[C@@H](CO)C(=O)N[C@@H](CC(=O)O)C(=O)N[C@@H](CCCNC(=N)N)C(=O)N[C@@H](CCCNC(=N)N)C(=O)N[C@@H](CC(C)C)C(=O)N[C@@H](CCC(=O)O)C(=O)N[C@@H](CCC(=O)O)C(=O)N[C@H](C(=O)N[C@@H](CC(N)=O)C(=O)N[C@@H](C)C(=O)N[C@@H](CCC(=O)O)C(=O)N[C@@H](C)C(=O)N[C@@H](C)C(=O)N[C@@H](C)C(=O)N[C@@H](CCCCN)C(=O)N[C@@H](CCCCNC(=O)CCC(=O)O[C@H]1CC[C@@]2(C)C(=CC[C@H]3[C@@H]4CC[C@H]([C@H](C)CCCC(C)C)[C@@]4(C)CC[C@@H]32)C1)C(N)=O)C(C)C)[C@@H](C)CC)[C@@H](C)CC)C(C)C [Compound 42] (Ac-FDASIEEVNRRIEESLRRIEESDRRLEEVNAEAAAKK(Succinyl(4-O-cholesteryl))-NH2)
IC50 (RSV A long virus strain): 11.8 nM
Kd (hMPV-N46 (127-172)): 533 nM
